Read-outs that look alike come from different tables or passages of the source.
Assays:
Target C = assay: Gene panel canonical junction qPCR assay, Target C CJ mRNA (Table 7); type: cell-based, human; conditions: read-out: Target C CJ mRNA decrease IC50
Outline: (§1)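 Treated K562 or A673 cells; measured CJ mRNA by cDNA synthesis and qPCR, 2^(−ΔΔCt) against housekeeper and DMSO. IC50 marks half-maximal CJ decrease.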

MYB = assay: Gene panel canonical junction qPCR assay, MYB CJ mRNA (Table 7); type: cell-based; conditions: Homo sapiens, read-out: MYB CJ mRNA decrease IC50
Outline: as §1

HTT [1] = assay: RT-qPCR splicing assay, HTT AJ/CJ mRNA; type: cell-based, human; conditions: A673 or K562 cells; for AC50: increase in alternative junction mRNA; for IC50: decrease in canonical junction mRNA
Outline: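 HTT and MYB canonical (CJ) and alternative-exon (AJ) junction transcripts quantified by one-step RT-qPCR from lysates of A673 or K562 cells treated 24 h with 11-point 3-fold dilutions (top 10 uM, ≤0.25% DMSO). Ct normalized to GAPDH, GUSB or PPIA and DMSO control (2^−ΔΔCt), expressed as % response.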

HTT [2] = assay: Gene panel canonical junction qPCR assay, HTT CJ mRNA (Table 7); type: cell-based, human; conditions: read-out: HTT CJ mRNA decrease IC50
Outline: as §1

SMN2 = assay: Gene panel canonical junction qPCR assay, SMN2 CJ mRNA (Table 7); type: cell-based; conditions: Homo sapiens, read-out: SMN2 CJ mRNA decrease IC50
Outline: as §1

| Compound | IC50 (Target C; Homo sapiens) [µM] | IC50 (MYB) [µM] | AC50 (HTT [1]; Homo sapiens, 24 h) [µM] | IC50 (HTT [2]; Homo sapiens) [µM] | IC50 (HTT [1]; Homo sapiens, 24 h) [µM] | IC50 (HTT [1]; Homo sapiens, 24 hours) [µM] | AC50 (HTT [1]; Homo sapiens, 24 hours) [µM] | IC50 (SMN2) [µM] | IC50 (HTT [1]; 24 hours) [µM] | AC50 (HTT [1]; 24 hours) [µM] | IC50 (HTT [2]) [µM] | IC50 (Target C) [µM] |
| --- | --- | --- | --- | --- | --- | --- | --- | --- | --- | --- | --- | --- |
| C[C@@H]1C[C@H](N(C)c2ccc3c(c2)OCc2cc(-c4cn[nH]c4)ccc2-3)CCN1 [Compound 101] | > 10 | > 10 | > 10 | – | – | – | – | – | – | – | – | – |
| C[C@H]1C[C@H](N(C)c2ccc3c(c2)OCc2cc(-c4cn[nH]c4)ccc2-3)CCN1 [Compound 102] | > 10 | > 10 | > 10 | > 10 | > 10 | – | – | – | – | – | – | – |
| CN(c1ccc2c(c1)OCc1cc(-c3cn[nH]c3)ccc1-2)[C@@H]1C[C@H]2CC[C@@H](C1)N2 [Compound 104] | > 10 | > 10 | > 10 | > 10 | > 10 | – | – | – | – | – | – | – |
| CN(c1ccc2c(c1)OCc1cc(-n3cccn3)ccc1-2)[C@@H]1C[C@H]2CC[C@@H](C1)N2 [Compound 105] | – | > 10 | – | > 10 | – | > 10 | > 10 | > 10 | – | – | – | – |
| CN(c1ccc2c(n1)OCc1cc(-c3cn[nH]c3)ccc1-2)[C@@H]1C[C@H]2CC[C@@H](C1)N2 [Compound 108] | < 0.1 | 0.1 to 1 | < 0.1 | < 0.1 | < 0.1 | – | – | < 0.1 | – | – | – | – |
| CN(c1ccc2c(c1)CCOc1cc(-n3cccn3)ccc1-2)[C@@H]1C[C@H]2CC[C@@H](C1)N2 [Compound 113] | > 10 | > 10 | > 10 | > 10 | > 10 | – | – | > 10 | – | – | – | – |
| CN(c1ccc2c(n1)OCc1cc(-c3cn[nH]c3)ccc1-2)C1CCNCC1 [Compound 116] | 0.1 to 1 | 1 to 10 | 1 to 10 | 0.1 to 1 | 0.1 to 1 | – | – | 0.1 to 1 | – | – | – | – |
| CN(c1ccc2c(c1)COc1cc(-n3cccn3)ccc1-2)C1CC(C)(C)NC(C)(C)C1 [Compound 117] | – | 1 to 10 | > 10 | > 10 | > 10 | – | – | > 10 | – | – | – | – |
| CC1(C)CC(Nc2ccc3c(c2)COc2cc(-n4cccn4)ccc2-3)CC(C)(C)N1 [Compound 118] | – | > 10 | > 10 | > 10 | > 10 | – | – | > 10 | – | – | – | – |
| CN(c1ccc2c(n1)COc1cc(-c3cn[nH]c3)ccc1-2)[C@@H]1C[C@H]2CC[C@@H](C1)N2 [Compound 121] | 0.1 to 1 | 1 to 10 | 0.1 to 1 | 0.1 to 1 | 0.1 to 1 | – | – | 0.1 to 1 | – | – | – | – |
| CN(c1ccc2c(n1)COc1cc(-n3cccn3)ccc1-2)[C@@H]1C[C@H]2CC[C@@H](C1)N2 [Compound 124] | 1 to 10 | 1 to 10 | – | 1 to 10 | – | – | – | 1 to 10 | 1 to 10 | 1 to 10 | – | – |
| CN(c1ccc2c(n1)COc1cc(-n3cccn3)ccc1-2)C1CC(C)(C)NC(C)(C)C1 [Compound 125] | > 10 | > 10 | > 10 | > 10 | > 10 | – | – | > 10 | – | – | – | – |
| CN(c1ccc2c(n1)CCOc1cc(-n3cccn3)ccc1-2)C1CC(C)(C)NC(C)(C)C1 [Compound 129] | > 10 | > 10 | > 10 | > 10 | > 10 | – | – | > 10 | – | – | – | – |
| CC1(C)CC(Nc2ccc3c(n2)COc2cc(-n4cccn4)ccc2-3)CC(C)(C)N1 [Compound 134] | < 0.1 | 1 to 10 | 1 to 10 | 1 to 10 | 1 to 10 | – | – | 1 to 10 | – | – | – | – |
| CN(c1cnc2c(n1)OCc1cc(-c3cn[nH]c3)ccc1-2)C1CC(C)(C)NC(C)(C)C1 [Compound 142] | – | 0.1 to 1 | – | – | – | – | – | 0.1 to 1 | 0.1 to 1 | 0.1 to 1 | 0.1 to 1 | 1 to 10 |
| c1cc2c(cc1-c1cn[nH]c1)COc1nc(N[C@@H]3C[C@H]4CC[C@@H](C3)N4)cnc1-2 [Compound 143] | 0.1 to 1 | 0.1 to 1 | 0.1 to 1 | 0.1 to 1 | 0.1 to 1 | – | – | 0.1 to 1 | – | – | – | – |
| CN(c1cnc2c(n1)OCc1cc(-c3cn[nH]c3)ccc1-2)[C@@H]1C[C@H]2CC[C@@H](C1)N2 [Compound 144] | 0.1 to 1 | 0.1 to 1 | 0.1 to 1 | 0.1 to 1 | 0.1 to 1 | – | – | > 10 | – | – | – | – |

| Compound | IC50 (Target C; Homo sapiens) [µM] | IC50 (MYB) [µM] | AC50 (HTT [1]; Homo sapiens, 24 h) [µM] | IC50 (HTT [2]; Homo sapiens) [µM] | IC50 (HTT [1]; Homo sapiens, 24 h) [µM] | IC50 (HTT [1]; Homo sapiens, 24 hours) [µM] | AC50 (HTT [1]; Homo sapiens, 24 hours) [µM] | IC50 (SMN2) [µM] | IC50 (HTT [1]; 24 hours) [µM] | AC50 (HTT [1]; 24 hours) [µM] | IC50 (HTT [2]) [µM] | IC50 (Target C) [µM] |
| --- | --- | --- | --- | --- | --- | --- | --- | --- | --- | --- | --- | --- |
| CN(c1ccc2c(n1)OCCc1cc(-c3cn[nH]c3)ccc1-2)C1CC(C)(C)NC(C)(C)C1 [Compound 145] | 1 to 10 | 1 to 10 | > 10 | > 10 | > 10 | – | – | 1 to 10 | – | – | – | – |
| CN(c1ccc2c(n1)OCCc1cc(-c3cn[nH]c3)ccc1-2)[C@@H]1C[C@H]2CC[C@@H](C1)N2 [Compound 146] | > 10 | > 10 | 1 to 10 | 1 to 10 | 1 to 10 | – | – | > 10 | – | – | – | – |
| CN(c1ccc2c(n1)OCc1cc(-c3cn[nH]c3)ccc1-2)C1CC(C)(C)NC(C)(C)C1 [Compound 147] | 0.1 to 1 | 1 to 10 | 0.1 to 1 | 0.1 to 1 | 0.1 to 1 | – | – | > 10 | – | – | – | – |
| CN(c1ccc2c(n1)OCc1cc(-n3cccn3)ccc1-2)C1CC(C)(C)NC(C)(C)C1 [Compound 148] | 1 to 10 | 1 to 10 | 1 to 10 | 1 to 10 | 1 to 10 | – | – | 0.1 to 1 | – | – | – | – |
| CN(c1ccc2c(n1)OCc1cc(-n3cccn3)ccc1-2)[C@@H]1C[C@H]2CC[C@@H](C1)N2 [Compound 149] | 0.1 to 1 | 0.1 to 1 | < 0.1 | 0.1 to 1 | 0.1 to 1 | – | – | 0.1 to 1 | – | – | – | – |
| CN(c1ccc2c(n1)OCc1cc(-n3nccn3)ccc1-2)[C@@H]1C[C@H]2CC[C@@H](C1)N2 [Compound 151] | 0.1 to 1 | 0.1 to 1 | < 0.1 | < 0.1 | < 0.1 | – | – | < 0.1 | – | – | – | – |
| CN(c1ccc2c(n1)OCc1cc(-n3ccnn3)ccc1-2)[C@@H]1C[C@H]2CC[C@@H](C1)N2 [Compound 152] | 0.1 to 1 | 0.1 to 1 | < 0.1 | 0.1 to 1 | 0.1 to 1 | – | – | < 0.1 | – | – | – | – |
| CN(c1ccc2c(n1)OCc1cc(-c3ccn(C)c(=O)c3)ccc1-2)[C@@H]1C[C@H]2CC[C@@H](C1)N2 [Compound 153] | < 0.1 | 0.1 to 1 | < 0.1 | < 0.1 | < 0.1 | – | – | < 0.1 | – | – | – | – |
| Cc1[nH]ncc1-c1ccc2c(c1)COc1nc(N(C)[C@@H]3C[C@H]4CC[C@@H](C3)N4)ccc1-2 [Compound 154] | 0.1 to 1 | 0.1 to 1 | 0.1 to 1 | 0.1 to 1 | 0.1 to 1 | – | – | 0.1 to 1 | – | – | – | – |
| Cc1ncc(-c2ccc3c(c2)COc2nc(N(C)[C@@H]4C[C@H]5CC[C@@H](C4)N5)ccc2-3)o1 [Compound 155] | 0.1 to 1 | 0.1 to 1 | < 0.1 | < 0.1 | < 0.1 | – | – | < 0.1 | – | – | – | – |
| COc1cc(-c2ccc3c(c2)COc2nc(N(C)[C@@H]4C[C@H]5CC[C@@H](C4)N5)ccc2-3)ccn1 [Compound 156] | 0.1 to 1 | 0.1 to 1 | < 0.1 | < 0.1 | < 0.1 | – | – | 0.1 to 1 | – | – | – | – |
| CN(c1ccc2c(n1)OCc1cc(-c3ccc(=O)[nH]c3)ccc1-2)[C@@H]1C[C@H]2CC[C@@H](C1)N2 [Compound 157] | 1 to 10 | 1 to 10 | 1 to 10 | 1 to 10 | 1 to 10 | – | – | 0.1 to 1 | – | – | – | – |
| CN(c1ccc2c(n1)OCc1cc(-c3ccc(=O)n(C)c3)ccc1-2)[C@@H]1C[C@H]2CC[C@@H](C1)N2 [Compound 158] | 0.1 to 1 | 0.1 to 1 | 0.1 to 1 | 0.1 to 1 | 0.1 to 1 | – | – | 0.1 to 1 | – | – | – | – |
| COc1cc(-c2ccc3c(c2)COc2nc(N(C)[C@@H]4C[C@H]5CC[C@@H](C4)N5)ccc2-3)cnn1 [Compound 159] | < 0.1 | < 0.1 | < 0.1 | < 0.1 | < 0.1 | – | – | < 0.1 | – | – | – | – |
| CN(c1ccc2c(n1)OCc1cc(-c3cnn(C)c(=O)c3)ccc1-2)[C@@H]1C[C@H]2CC[C@@H](C1)N2 [Compound 160] | < 0.1 | 0.1 to 1 | < 0.1 | < 0.1 | < 0.1 | – | – | < 0.1 | – | – | – | – |
| c1cc2c(cc1-c1cn[nH]c1)COc1nc(N3CCC34CCNC4)ccc1-2 (stereo not drawn) [Compound 207] | > 10 | 1 to 10 | – | > 10 | – | – | – | > 10 | – | – | – | – |
| Cc1ncc(-c2ccc3c(c2)COc2nc(O[C@@H]4C[C@H]5C[C@@H](C4)N5)ccc2-3)s1 [Compound 208] | 0.1 to 1 | 0.1 to 1 | – | < 0.1 | – | – | – | < 0.1 | – | – | – | – |
